Data from patent US4882432A, “Polycyclic-carbamic acid piperazinoalkyl esters and amides” (American Home Products Corporation, priority 1989, dated 1989).

Tests used:
[1] = biological target: T1, 5-HT1A serotonin receptor subtype (Rattus norvegicus, UniProt P19327); experiment: displacement of ^3 H-8-OH DPAT from the 5-HT1A serotonin receptor subtype (Hall et al.); format: binding; settings: for inhibition at 1 µM: 1 μM test compound, read-out: % Inhibition at 1 μM (Affinity for 5-HT1A Receptor Sites); for Ki: calculated from IC50 values, read-out: Ki (Affinity for 5-HT1A Receptor Sites)
T1 construct: from tissue
T1 sequence (P19327 1-422): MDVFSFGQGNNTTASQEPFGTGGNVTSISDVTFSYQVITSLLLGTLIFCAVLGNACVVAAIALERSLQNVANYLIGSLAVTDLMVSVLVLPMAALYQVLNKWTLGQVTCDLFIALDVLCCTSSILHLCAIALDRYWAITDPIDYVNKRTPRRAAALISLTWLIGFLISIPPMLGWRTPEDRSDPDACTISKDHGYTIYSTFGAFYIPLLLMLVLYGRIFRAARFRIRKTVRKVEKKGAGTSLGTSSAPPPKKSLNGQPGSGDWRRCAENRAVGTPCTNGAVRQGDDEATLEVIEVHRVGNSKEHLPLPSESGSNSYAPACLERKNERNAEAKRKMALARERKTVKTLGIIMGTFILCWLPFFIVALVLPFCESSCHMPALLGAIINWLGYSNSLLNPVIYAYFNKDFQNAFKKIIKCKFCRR
Description: The serotoninergic properties of the compounds of this invention were established by the procedure of Hall et al., J. Neurochem.

[2] = biological target: T2, limbic D2 (dopamine) receptor (Rattus norvegicus, UniProt P61169); experiment: inhibition of ^3 H-spiroperidol binding to limbic brain tissue (D2 receptor affinity); settings: 1 μM test compound, read-out: % Inhibition at 1 μM (Affinity for D2 Receptor Sites)
T2 construct: from tissue
T2 sequence (P61169 whole entry): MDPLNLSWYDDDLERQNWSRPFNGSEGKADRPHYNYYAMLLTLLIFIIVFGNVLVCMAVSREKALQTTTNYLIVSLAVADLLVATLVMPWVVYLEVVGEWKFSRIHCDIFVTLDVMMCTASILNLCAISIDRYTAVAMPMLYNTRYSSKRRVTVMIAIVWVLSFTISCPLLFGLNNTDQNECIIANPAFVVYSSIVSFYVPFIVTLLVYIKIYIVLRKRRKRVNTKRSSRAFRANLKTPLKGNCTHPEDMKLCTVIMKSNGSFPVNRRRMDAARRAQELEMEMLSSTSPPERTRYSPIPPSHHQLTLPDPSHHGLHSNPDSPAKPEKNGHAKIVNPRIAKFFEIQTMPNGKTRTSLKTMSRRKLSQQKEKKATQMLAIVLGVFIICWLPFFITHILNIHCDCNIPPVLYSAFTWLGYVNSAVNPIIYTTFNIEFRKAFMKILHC
Description: The compounds of this invention are antidepressant, anxiolytic agents useful in the treatment of depression and/or anxiety as a singular, primary mental problem as well as secondary, attending problems such as sexual dysfunction. […] The D2 receptor affinity of the compounds of this invention was determined by a modification of the test procedure of Fields et al., Brain Res. 136, 578 (1977) and Yamamura et al., eds., Neurotransmitter Receptor Binding, Raven Press, N.Y. (1978) as discussed in U.S. Pat. No. 4,636,563. The percentage reduction of ^3 H-spiroperidol binding at 1 μM concentration of test compound is reported, infra.

[3] = literature; cited from earlier work

## O=C(NCCN1CCN(c2cccc(Cl)c2)CC1)NC12CC3CC(CC(C3)C1)C2 [Example 3, N-[2-[4-(3-chlorophenyl)-1-piperazinyl]ethyl]-N'-tricyclo[3.3.1.1(3,7)]dec-1-ylurea]
[1]; 100 nM test compound, read-out: % Inhibition at 100 nM (Affinity for 5-HT1A Receptor Sites)
  inhibition at 0.1 µM: 54%
[2]
  inhibition at 1 µM: 56%

## O=C(NCCCN1CCN(c2cccc(Cl)c2)CC1)NC12CC3CC(CC(C3)C1)C2 [Example 6, N-[3-[4-(3-chlorophenyl)-1-piperazinyl]propyl]-N'-tricyclo[3.3.1.1(3,7)]dec-1-ylurea]
[1]
  inhibition at 1 µM: 95%
  Ki: 45 nM
[2]
  inhibition at 1 µM: 38%

## COc1ccccc1N1CCN(CCNC(=O)NC23CC4CC(CC(C4)C2)C3)CC1 [Example 2]
[1]
  inhibition at 1 µM: 100%

## O=C(NCCN1CCN(c2ncccn2)CC1)NC12CC3CC(CC(C3)C1)C2 [Example 1, N-[2-[4-(2-pyrimidyl)-1-piperazinyl]ethyl]-N'-tricyclo[3.3.1.1(3,7)]dec-1-ylurea]
[1]
  inhibition at 1 µM: 91%
  Ki: 52 nM
[2]
  inhibition at 1 µM: 15%

## Cc1nc2sccn2c(=O)c1CCN1CCC(=C(c2ccc(F)cc2)c2ccc(F)cc2)CC1 [Ritanserin]
[3]
  clinical efficacy as anxiolytic-antidepressant agents (in words): demonstrate clinical efficacy as anxiolytic-antidepressant agents

## O=C(NCCCN1CCN(c2ncccn2)CC1)NC12CC3CC(CC(C3)C1)C2 [Example 4, N-[3[4-(2-pyrimidyl)-1-piperazinyl]propyl]-N'-tricyclo[3.3.1.1(3,7)]dec-1-ylurea]
[1]
  inhibition at 1 µM: 100%
  Ki: 7 nM
[2]
  inhibition at 1 µM: 10%

## COc1ccccc1N1CCN(CCCNC(=O)NC23CC4CC(CC(C4)C2)C3)CC1 [Example 5, N-[3-[4-(2-methoxyphenyl)-1-piperazinyl]propyl]-N'-tricyclo[3.3.1.1(3,7)]dec-1-ylurea]
[1]
  inhibition at 1 µM: 100%
[2]
  inhibition at 1 µM: 66%
